Measurements published in PMC8799717, “Pharmacological targeting PIKfyve and tubulin as an effective treatment strategy for double-hit lymphoma” (Cell Death Discovery, 2022).

What was measured:
Assay in all cases: biochemical
Parameters in all cases: KINOMEscan active-site-directed competition binding panel, 468 kinases, percent of DMSO control at 1 uM
Details in all cases: KINOMEscan binding, percent of DMSO control; read-out: Ctrl%
[1] = target: GRK7 (Homo sapiens, UniProt Q8WTQ7)
[2] = target: T1, RPS6KA5(Kin.Dom.1-N-terminal) (Homo sapiens, UniProt O75582)
T1 construct: Kin.Dom.1-N-terminal

[3] = target: PRKX (Homo sapiens, UniProt P51817)
Chain of PRKX (P51817 whole entry): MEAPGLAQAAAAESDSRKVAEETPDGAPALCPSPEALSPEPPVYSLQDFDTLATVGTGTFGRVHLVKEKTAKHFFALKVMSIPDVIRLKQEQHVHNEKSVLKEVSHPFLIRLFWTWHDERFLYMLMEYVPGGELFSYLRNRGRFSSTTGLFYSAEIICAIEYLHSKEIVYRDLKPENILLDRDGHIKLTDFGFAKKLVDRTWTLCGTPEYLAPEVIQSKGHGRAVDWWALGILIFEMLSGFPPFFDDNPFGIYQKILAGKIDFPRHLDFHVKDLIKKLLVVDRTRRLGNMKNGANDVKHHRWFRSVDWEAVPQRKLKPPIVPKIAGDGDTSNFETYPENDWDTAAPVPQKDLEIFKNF

[4] = target: ANKK1 (Homo sapiens, UniProt Q8NFD2)
[5] = target: NEK2 (Homo sapiens, UniProt P51955)
[6] = target: T2, p38-beta (Homo sapiens, UniProt Q15759)
T2 construct: gene MAPK11
T2 sequence (Q15759 whole entry): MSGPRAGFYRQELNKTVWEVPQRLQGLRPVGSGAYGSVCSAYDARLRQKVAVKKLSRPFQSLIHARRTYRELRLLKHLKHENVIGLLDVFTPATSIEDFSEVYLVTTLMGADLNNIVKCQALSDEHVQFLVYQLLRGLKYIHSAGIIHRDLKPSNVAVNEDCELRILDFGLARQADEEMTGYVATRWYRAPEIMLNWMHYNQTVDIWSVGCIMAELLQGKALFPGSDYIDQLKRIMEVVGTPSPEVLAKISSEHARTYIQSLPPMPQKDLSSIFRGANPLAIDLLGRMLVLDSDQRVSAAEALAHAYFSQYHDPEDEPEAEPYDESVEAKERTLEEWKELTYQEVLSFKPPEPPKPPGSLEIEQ

[7] = target: PIK3CA(E545A) (Homo sapiens, UniProt P42336, E545A)
[8] = target: CAMK2G (Homo sapiens, UniProt Q13555)
Chain of CAMK2G (Q13555 whole entry): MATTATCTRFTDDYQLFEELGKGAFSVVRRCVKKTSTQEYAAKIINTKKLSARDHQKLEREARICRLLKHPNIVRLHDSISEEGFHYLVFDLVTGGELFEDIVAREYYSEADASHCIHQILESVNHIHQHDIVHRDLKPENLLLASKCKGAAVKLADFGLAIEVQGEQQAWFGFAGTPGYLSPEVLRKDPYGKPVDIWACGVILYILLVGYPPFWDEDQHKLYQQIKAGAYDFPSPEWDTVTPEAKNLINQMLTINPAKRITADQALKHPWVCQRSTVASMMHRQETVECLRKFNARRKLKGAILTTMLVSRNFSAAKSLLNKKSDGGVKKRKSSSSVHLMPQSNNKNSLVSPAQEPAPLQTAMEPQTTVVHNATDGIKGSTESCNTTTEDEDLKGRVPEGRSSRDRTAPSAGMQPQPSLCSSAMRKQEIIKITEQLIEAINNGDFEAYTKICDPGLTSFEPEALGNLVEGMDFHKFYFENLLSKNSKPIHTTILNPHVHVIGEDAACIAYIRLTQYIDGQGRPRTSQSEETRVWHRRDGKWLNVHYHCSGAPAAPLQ

[9] = target: T3, TRKC (Homo sapiens, UniProt Q16288)
T3 construct: gene NTRK3
T3 sequence (Q16288 whole entry): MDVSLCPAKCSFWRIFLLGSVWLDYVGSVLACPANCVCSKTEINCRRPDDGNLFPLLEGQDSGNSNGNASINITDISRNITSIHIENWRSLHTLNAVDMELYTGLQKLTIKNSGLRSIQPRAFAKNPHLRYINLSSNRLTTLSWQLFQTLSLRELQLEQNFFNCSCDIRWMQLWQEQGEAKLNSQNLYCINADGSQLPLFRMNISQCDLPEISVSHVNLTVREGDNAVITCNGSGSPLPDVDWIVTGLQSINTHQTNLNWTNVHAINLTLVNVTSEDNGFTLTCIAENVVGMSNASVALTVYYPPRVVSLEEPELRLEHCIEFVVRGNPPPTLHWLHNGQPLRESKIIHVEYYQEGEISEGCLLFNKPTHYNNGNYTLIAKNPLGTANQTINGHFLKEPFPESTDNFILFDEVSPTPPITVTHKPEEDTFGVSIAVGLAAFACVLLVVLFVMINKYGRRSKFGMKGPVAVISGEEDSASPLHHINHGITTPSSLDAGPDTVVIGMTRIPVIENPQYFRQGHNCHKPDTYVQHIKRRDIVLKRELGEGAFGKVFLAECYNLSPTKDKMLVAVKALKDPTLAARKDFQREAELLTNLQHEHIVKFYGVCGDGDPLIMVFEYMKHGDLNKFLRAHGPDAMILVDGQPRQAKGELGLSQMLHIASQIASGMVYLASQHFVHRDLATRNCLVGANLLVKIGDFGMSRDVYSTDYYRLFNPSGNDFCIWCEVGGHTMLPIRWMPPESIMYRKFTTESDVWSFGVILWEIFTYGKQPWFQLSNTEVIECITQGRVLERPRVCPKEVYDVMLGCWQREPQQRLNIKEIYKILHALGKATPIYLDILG

[10] = target: GRK4 (Homo sapiens, UniProt P32298)
[11] = target: MET(Y1235D) (Homo sapiens, UniProt P08581, Y1235D)
Chain of MET(Y1235D) (P08581 whole entry Y1235D): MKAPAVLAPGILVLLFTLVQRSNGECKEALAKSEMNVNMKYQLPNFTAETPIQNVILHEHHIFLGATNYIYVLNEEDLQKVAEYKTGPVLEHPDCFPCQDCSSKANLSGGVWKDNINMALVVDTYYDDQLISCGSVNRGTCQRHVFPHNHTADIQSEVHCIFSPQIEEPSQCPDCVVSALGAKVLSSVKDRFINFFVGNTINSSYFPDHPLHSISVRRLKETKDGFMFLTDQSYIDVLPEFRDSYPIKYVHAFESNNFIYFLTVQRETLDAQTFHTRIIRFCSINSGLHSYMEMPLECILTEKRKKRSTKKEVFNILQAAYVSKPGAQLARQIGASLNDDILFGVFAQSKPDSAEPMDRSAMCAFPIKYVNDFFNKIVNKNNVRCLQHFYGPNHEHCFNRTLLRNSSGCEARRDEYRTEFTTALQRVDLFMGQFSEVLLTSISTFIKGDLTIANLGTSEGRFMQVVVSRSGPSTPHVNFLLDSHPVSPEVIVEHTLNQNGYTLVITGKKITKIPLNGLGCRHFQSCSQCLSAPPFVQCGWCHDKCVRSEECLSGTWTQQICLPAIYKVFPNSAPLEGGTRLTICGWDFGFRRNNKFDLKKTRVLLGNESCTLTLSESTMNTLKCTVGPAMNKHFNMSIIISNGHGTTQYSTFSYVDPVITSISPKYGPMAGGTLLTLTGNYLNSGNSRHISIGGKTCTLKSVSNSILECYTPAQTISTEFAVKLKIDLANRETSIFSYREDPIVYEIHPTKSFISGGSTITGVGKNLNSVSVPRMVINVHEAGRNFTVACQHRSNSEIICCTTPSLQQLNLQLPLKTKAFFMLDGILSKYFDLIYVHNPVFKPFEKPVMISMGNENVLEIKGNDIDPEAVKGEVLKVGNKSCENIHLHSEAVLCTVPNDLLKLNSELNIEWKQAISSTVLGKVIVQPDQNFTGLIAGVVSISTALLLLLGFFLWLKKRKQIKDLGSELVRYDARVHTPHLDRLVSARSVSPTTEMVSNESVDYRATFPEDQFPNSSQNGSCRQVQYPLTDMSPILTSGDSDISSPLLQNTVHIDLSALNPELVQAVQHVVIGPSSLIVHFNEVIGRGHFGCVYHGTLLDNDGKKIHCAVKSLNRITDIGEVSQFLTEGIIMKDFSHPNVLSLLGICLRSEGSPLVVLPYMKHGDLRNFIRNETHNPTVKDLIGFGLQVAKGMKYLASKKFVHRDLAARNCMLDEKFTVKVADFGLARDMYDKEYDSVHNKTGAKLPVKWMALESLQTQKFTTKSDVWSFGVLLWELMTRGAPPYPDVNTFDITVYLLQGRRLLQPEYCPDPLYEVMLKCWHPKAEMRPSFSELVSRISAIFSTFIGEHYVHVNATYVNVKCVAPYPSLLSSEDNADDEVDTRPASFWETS

[12] = target: BRAF(V600E) (Homo sapiens, UniProt P15056, V600E)
Chain of BRAF(V600E) (P15056 whole entry V600E): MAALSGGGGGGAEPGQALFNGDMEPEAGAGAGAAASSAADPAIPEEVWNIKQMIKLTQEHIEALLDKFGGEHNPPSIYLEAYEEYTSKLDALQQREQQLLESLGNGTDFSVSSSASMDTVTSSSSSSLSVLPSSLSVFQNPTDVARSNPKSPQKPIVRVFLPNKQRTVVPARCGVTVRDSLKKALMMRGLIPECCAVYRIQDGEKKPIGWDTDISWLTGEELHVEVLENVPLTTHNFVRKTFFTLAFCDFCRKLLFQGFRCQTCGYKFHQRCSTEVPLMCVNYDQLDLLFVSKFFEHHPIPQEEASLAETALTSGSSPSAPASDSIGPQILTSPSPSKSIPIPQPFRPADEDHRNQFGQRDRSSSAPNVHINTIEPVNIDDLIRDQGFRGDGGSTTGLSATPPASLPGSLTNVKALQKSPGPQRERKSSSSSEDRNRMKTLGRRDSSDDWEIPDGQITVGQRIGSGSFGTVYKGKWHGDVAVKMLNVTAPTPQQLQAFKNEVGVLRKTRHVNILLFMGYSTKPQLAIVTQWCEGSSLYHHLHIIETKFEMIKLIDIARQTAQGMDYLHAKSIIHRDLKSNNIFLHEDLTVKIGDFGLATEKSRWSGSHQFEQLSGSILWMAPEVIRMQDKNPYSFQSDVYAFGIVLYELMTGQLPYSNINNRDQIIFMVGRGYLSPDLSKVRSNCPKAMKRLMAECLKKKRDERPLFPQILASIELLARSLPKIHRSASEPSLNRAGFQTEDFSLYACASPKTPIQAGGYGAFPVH

[13] = target: FLT4 (Homo sapiens, UniProt P35916)
[14] = target: T4, RSK3(Kin.Dom.1-N-terminal) (Homo sapiens, UniProt Q15349)
T4 construct: gene RPS6KA2; Kin.Dom.1-N-terminal

[15] = target: PRKD3 (Homo sapiens, UniProt O94806)
[16] = target: EGFR(G719S) (Homo sapiens, UniProt P00533, G719S)
[17] = target: PRKG2 (Homo sapiens, UniProt Q13237)
[18] = target: NEK1 (Homo sapiens, UniProt Q96PY6)
[19] = target: T5, PAK7 (Homo sapiens, UniProt Q9P286)
T5 construct: gene PAK5
T5 sequence (Q9P286 whole entry): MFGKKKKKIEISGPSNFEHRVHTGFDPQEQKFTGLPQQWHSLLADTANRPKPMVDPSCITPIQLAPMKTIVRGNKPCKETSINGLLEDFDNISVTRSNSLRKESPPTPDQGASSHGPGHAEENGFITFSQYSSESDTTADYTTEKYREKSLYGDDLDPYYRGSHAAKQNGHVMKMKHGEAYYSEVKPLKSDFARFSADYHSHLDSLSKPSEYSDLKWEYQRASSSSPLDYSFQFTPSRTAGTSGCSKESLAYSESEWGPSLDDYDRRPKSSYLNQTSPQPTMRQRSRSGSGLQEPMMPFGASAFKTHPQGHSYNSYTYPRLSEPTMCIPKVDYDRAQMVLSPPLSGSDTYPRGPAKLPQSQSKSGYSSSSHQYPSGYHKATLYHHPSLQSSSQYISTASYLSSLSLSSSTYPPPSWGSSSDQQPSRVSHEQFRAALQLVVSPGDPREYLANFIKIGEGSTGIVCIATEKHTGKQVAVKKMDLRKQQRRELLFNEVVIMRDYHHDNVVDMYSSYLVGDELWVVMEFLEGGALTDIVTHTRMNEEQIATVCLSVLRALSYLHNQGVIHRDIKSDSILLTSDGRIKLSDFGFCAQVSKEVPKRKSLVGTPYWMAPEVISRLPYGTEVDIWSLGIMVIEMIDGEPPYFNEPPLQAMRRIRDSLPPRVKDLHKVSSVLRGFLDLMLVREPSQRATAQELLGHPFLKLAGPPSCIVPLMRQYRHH

[20] = target: NEK11 (Homo sapiens, UniProt Q8NG66)
[21] = target: PRKD2 (Homo sapiens, UniProt Q9BZL6)
[22] = target: KIT(A829P) (Homo sapiens, UniProt P10721, A829P)
[23] = target: WEE1 (Homo sapiens, UniProt P30291)
[24] = target: BTK (Homo sapiens, UniProt Q06187)

Cc1ccc(NC(=O)c2cccc(C(F)(F)F)c2)cc1Nc1cc(-c2cccnc2)nc2[nH]ccc12 [HZX-02-059]
remaining binding at 1 µM [1]: 80% | remaining binding at 1 µM [2]: 94% | remaining binding at 1 µM [3]: 100% | remaining binding at 1 µM [4]: 99% | remaining binding at 1 µM [5]: 66% | remaining binding at 1 µM [6]: 64% | remaining binding at 1 µM [7]: 88% | remaining binding at 1 µM [8]: 97% | remaining binding at 1 µM [9]: 100% | remaining binding at 1 µM [10]: 83% | remaining binding at 1 µM [11]: 95% | remaining binding at 1 µM [12]: 4.5% | remaining binding at 1 µM [13]: 94% | remaining binding at 1 µM [14]: 98% | remaining binding at 1 µM [15]: 100% | remaining binding at 1 µM [16]: 97% | remaining binding at 1 µM [17]: 89% | remaining binding at 1 µM [18]: 78% | remaining binding at 1 µM [19]: 65% | remaining binding at 1 µM [20]: 100% | remaining binding at 1 µM [21]: 92% | remaining binding at 1 µM [22]: 84% | remaining binding at 1 µM [23]: 95% | remaining binding at 1 µM [24]: 100%
